# Measured values taken from patent US6359015B1, “Method for antagonizing inhibition effects of alcohol on cell adhesion” (The United States of America as represented by the …, priority 2000, dated 2002).
# Tests used:
# [1] = system: BMP-7 treated NG108-15 neuroblastoma×glioma cells; test: Cell-cell adhesion (short-term aggregation) assay in BMP-7 treated NG108-15 cells; assay type: cell-based, rat and mouse; details: for Inhibition of cell-cell adhesion (in words): both cellular systems (NG108-15 + BMP-7 and L1-expressing NIH/3T3); for Inhibition of cell-cell adhesion at higher concentrations (in words): concentrations 5-10 fold higher than those reported in Table 1
# Protocol: NIH/3T3 cells were cultured in Dulbecco's minimum Eagle medium (DMEM) (Life Technologies, Gaithersburg, Md.) supplemented with 10% normal calf serum (Intergen, Purchase, N.Y.) and 400 μg/ml G418 (Life Technologies). NG108-15 neuroblastoma×glioma cells (passages 21 to 30) were plated in serum-free, defined medium (Reference 16). At the start of the morphogenetic and cell adhesion assays, serum-free medium containing BMP-7 (Creative BioMolecules, Hopkinton, Ma.) (1-40 ng/ml, final) was added daily to the NG108-15 cells. Both cell lines were cultured at 37° C., in an atmosphere of 90% air and 10% CO2. Three NIH/3T3 subclones were utilized in these studies: 2B2-L1, 2A2-L1 and Vec-1A5. The 2B2-L1 and 2A2-L1 cell lines are subclones derived from a stable transfection of NIH/3T3 cells with the human L1 cDNA, and Vec-1A5 is a subclone from a transfection with the empty expression vector (Reference 12).
# Cells were cultured and cell adhesion assays were performed in the absence and presence of the alcohols listed below in Table 1. The concentrations of alcohols used in the adhesion assays were calculated to produce membrane concentrations equivalent to 50-100 mM ethanol. Membrane/buffer partition coefficients (Pm/b) were obtained or were calculated from published octanol/water partition coefficients (Reference 15). Molar volumes were obtained from published sources (References 15) or were calculated from molecular weights and densities at 20° C.
# (§1) Cell-cell adhesion was measured using a modified short-term aggregation assay of sub-confluent cells (Reference 12). Cells were detached by gentle agitation, mechanically dissociated to obtain a single-cell suspension, and diluted in PBS supplemented with 0.1 mg/ml DNase to 350,000 cells/ml for the NIH/3T3 cells, and 250,000 cells/ml for the NG108-15 cells. One ml of the cell suspension was added per well (4.5 cm^2) of a 12-well plate. After addition of the alcohols, the cells were gently mixed and mechanically shaken for 30 minutes at room temperature on an orbital shaker set at 60 to 80 rpm. Cells were viewed at a final magnification of 200×, and each well was scored for single and adherent cells in five or six microscopic fields of view. We counted approximately 100 cells per field of view and 600 cells per well. The percentage of adherent cells was calculated for each microscopic field of view and averaged. To calculate the magnitude of ethanol inhibition, we subtracted the values for cell adhesion with the Vec-1A5 cells from those of the 2B2-L1 or 2A2-L1 cell lines. Similarly, the values for cell adhesion in NG108-15 cells cultured in serum-free medium were subtracted from those of NG108-15 cells treated with BMP-7.
# We tested the effects of a series of alcohols on cell-cell adhesion in two well-characterized model systems. NG108-15 cells were incubated for 48 hours in a serum-free medium supplemented with 10-20 ng/ml BMP-7 to induce L1 and N-CAM gene expression (Reference 10). Parallel experiments were performed using two ethanol-sensitive NIH/3T3 cell lines transfected with human L1 (2B2-L1 and 2A2-L1) (Reference 12) and a NIH/3T3 cell line transfected with the empty expression vector (1A5-V).
# [2] = from published source or octanol/water partition coefficient divided by 5; cited from earlier work
# [3] = published or calculated from molecular weight and density at 20° C.; cited from earlier work
# [4] = system: BMP-7 treated NG108-15 cells; test: Antagonism of short-chain alcohol inhibition of cell adhesion in BMP-7 treated NG108-15 cells; assay type: cell-based, rat and mouse
# Protocol: as §1
"IC50 ([4]; NG108-15, read-out: IC50 for antagonism of 1-butanol (and ethanol) inhibition of cell-cell adhesion)",SMILES,Inhibition of cell-cell adhesion (in words) [1],P(m/b) membrane/buffer partition coefficient [2],Vm molar volume [3],Inhibition of cell-cell adhesion at higher concentrations (in words) [1],"Antagonism of inhibition of cell-cell adhesion by 1-butanol (in words) ([4]; 2 mM 1-butanol, BMP-7 treated NG108-15 cells)",Antagonism of the effects of 3-methyl-1-butanol on cell adhesion (in words) ([4]; 3 mM 3-methyl-1-butanol),Antagonism of the effects of ethanol on cell adhesion (in words) ([4]; 100 mM ethanol),"Potency for inhibition of cell adhesion relative to 2-ethyl-1-butanol ([1]; IC50 comparison, FIG. 2)"
–,OCC1CC1 [cyclopropyl methanol],active,0.71,71 mL/mol,–,–,–,–,–
–,OC1CCCC1 [cyclopentanol],did not,2.24,92 mL/mol,inactivity,–,–,–,–
–,CCC(CC)CO [2-ethyl-1-butanol],did not reduce activity,9.14,123 mL/mol,–,–,–,–,–
–,OCc1ccccc1 [benzyl alcohol],did not,2.52,104 mL/mol,–,–,–,–,–
–,CCC(O)CC [3-pentanol],–,4.69,107 mL/mol,–,–,–,–,–
715 µM,CCCCCO [1-pentanol],not inhibited,5.02,108 mL/mol,inactivity,completely abolished,abolished,abolished,–
–,CCCC(C)(C)O [2-methyl-2-pentanol],–,5.20,122 mL/mol,–,–,–,–,–
–,CCCC(C)O (centres unmarked) [2-pentanol],abolished activity,4.38,109 mL/mol,–,–,–,–,–
–,CCCO [1-propanol],active,–,–,–,–,–,–,–
–,C=CCCO [3-buten-1-ol],abolished activity,1.00,86 mL/mol,inactivity,–,–,–,–
–,CC(C)CCCO [4-methyl-1-pentanol],–,9.36,126 mL/mol,inactivity,–,–,–,–
–,CC(C)CO [2-methyl-1-propanol],active,1.10,90 mL/mol,–,–,–,–,–
–,"CC(O)C1CC1 (centres unmarked) [cyclopropyl-ethanol, cyclopropylethanol]",abolished activity,0.83,91 mL/mol,inactivity,–,–,–,–
–,CC(C)CCO [3-methyl-1-butanol],did not reduce activity,2.89,109 mL/mol,–,–,–,–,–
–,CC(C)c1cccc(C(C)C)c1O [propofol],did not inhibit,1.00,86 mL/mol,–,–,–,–,–
–,OC1CCC1 [cyclobutanol],inhibited,0.91,78 mL/mol,–,–,–,–,–
–,"CC(C)(C)CCO [3,3-dimethyl-1-butanol]",did not reduce activity,5.77,121 mL/mol,–,–,–,–,more than four times as potent
